Holding throughout (type): cell-based
For test [1], the target named is 5-hydroxytryptamine receptor 2A (Homo sapiens, UniProt P28223). Put plainly: Displacement of [3H]ketanserin from 5-hydroxytryptamine 2A receptor expressed NIH3T3 cells.
Test [2] deals with Sodium-dependent serotonin transporter (Mus musculus, UniProt Q60857). Put plainly: Binding affinity to Serotonin transporter using [3H]-paroxetine as radioligand in stably transfected NIH3T3 cells.
The target of test [3] is D(2) dopamine receptor (Mus musculus, UniProt P61168). Put plainly: Binding affinity to Dopamine receptor D2 using [3H]spiperone as radioligand in stably transfected NIH3T3 cells.
D(2) dopamine receptor, sequence (P61168 whole entry): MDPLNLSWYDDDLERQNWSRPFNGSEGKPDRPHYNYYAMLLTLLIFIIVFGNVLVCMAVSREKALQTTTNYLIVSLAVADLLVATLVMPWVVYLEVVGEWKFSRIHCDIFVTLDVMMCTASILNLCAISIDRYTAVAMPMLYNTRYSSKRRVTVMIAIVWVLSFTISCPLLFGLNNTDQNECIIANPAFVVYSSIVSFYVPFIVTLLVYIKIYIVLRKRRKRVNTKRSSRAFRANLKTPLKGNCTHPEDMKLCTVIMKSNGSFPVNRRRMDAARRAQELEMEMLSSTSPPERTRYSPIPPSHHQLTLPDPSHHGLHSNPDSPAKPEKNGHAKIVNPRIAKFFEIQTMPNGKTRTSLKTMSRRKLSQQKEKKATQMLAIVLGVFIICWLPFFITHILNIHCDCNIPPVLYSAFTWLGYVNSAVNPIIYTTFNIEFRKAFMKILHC
For test [4], the target named is T1, 5-hydroxytryptamine receptor 2C (Mus musculus, UniProt P34968).
T1 sequence (P34968 whole entry): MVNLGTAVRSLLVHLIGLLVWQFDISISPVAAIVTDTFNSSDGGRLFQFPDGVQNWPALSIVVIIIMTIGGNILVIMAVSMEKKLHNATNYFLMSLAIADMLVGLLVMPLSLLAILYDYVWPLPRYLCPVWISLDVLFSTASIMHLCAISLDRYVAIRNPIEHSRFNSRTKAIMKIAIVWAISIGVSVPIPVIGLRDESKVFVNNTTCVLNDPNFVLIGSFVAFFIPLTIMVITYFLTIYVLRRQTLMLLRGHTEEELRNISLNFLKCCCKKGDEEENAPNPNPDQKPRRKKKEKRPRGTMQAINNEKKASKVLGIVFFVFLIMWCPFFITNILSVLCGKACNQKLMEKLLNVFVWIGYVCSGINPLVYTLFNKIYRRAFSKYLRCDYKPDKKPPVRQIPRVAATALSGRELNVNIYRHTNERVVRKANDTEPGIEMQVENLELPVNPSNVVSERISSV
Briefly: Binding affinity to 5-hydroxytryptamine 2C receptor using [3H]Mesulergine as radioligand in stably transfected NIH3T3 cells.

In test [5] the target is Sodium-dependent noradrenaline transporter (Mus musculus, UniProt O55192). Put plainly: Binding affinity to Norepinephrine transporter using [3H]-[…] as radioligand in stably transfected NIH3T3 cells.
Sodium-dependent noradrenaline transporter, sequence (O55192 whole entry): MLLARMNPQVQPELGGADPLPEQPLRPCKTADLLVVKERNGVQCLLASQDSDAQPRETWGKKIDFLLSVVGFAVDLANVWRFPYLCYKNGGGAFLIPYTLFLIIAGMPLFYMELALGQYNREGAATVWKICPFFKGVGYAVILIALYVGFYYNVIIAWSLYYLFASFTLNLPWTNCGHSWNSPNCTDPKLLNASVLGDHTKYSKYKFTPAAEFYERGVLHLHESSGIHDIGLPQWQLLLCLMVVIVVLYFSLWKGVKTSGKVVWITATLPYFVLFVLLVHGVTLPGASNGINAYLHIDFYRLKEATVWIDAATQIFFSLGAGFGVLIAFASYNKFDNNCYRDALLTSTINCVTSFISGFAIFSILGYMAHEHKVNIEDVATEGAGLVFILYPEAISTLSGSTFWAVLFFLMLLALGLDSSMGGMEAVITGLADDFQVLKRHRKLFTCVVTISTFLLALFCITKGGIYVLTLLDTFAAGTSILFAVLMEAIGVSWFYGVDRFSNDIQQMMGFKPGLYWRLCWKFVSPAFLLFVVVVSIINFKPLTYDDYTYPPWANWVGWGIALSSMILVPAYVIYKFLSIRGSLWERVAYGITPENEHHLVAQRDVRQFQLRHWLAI
For test [6], the target named is T1, 5-hydroxytryptamine receptor 2C. Briefly: Binding affinity to 5-hydroxytryptamine 2C receptor measured using radioligand [3H]Mesulergine in stably transfected NIH3T3 cells.

pKi: −log10 of the molar value.

5-hydroxytryptamine receptor 2A, sequence (P28223 whole entry): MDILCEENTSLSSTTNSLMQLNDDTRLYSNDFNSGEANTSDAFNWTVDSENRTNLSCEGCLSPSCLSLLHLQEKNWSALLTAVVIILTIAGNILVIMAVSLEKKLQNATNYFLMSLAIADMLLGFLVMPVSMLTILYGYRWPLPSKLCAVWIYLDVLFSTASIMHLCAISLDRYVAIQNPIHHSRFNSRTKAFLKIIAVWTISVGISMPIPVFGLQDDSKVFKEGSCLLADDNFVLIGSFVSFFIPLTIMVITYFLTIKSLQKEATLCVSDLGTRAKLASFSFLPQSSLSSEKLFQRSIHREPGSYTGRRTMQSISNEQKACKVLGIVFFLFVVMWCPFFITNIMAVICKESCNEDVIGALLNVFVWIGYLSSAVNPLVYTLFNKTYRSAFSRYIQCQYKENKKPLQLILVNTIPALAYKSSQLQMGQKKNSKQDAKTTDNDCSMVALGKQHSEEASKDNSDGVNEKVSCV
Sodium-dependent serotonin transporter, sequence (Q60857 whole entry): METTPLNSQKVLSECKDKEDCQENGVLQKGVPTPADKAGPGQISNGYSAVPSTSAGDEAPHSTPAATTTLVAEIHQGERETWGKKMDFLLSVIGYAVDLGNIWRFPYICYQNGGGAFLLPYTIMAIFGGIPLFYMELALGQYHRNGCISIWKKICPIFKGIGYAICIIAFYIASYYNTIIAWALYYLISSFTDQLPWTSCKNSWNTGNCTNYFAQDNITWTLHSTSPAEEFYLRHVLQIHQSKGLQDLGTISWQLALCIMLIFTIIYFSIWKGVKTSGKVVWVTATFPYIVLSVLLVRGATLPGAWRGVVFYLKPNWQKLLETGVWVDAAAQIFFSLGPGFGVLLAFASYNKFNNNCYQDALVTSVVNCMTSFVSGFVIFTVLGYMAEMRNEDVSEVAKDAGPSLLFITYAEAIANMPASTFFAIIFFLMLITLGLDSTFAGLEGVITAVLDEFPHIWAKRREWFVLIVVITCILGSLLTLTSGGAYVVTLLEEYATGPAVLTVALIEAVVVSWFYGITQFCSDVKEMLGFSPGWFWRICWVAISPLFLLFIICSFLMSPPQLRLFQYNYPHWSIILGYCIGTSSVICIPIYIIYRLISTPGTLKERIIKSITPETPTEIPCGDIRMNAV

Consider `NC1c2ccccc2Cc2ccccc21`, for which the pKi in test [1] was 4.92.
In test [1], `CNCCCC1c2ccccc2Cc2ccccc21` gave a pKi of 7.89.
`C[N+](C)(C)CC1c2ccccc2Cc2ccccc21` showed a pKi in test [1] of 5.40.
In test [1], `CN(C)CC1c2ccccc2Cc2ccccc21` had a pKi of 6.27.
In test [1], `CN(C)CCCC1c2ccccc2Cc2ccccc21` gave a pKi of 7.66.
For `CNCC1c2ccccc2Cc2ccccc21`, in test [1], the pKi is 7.28.
Still for that read-out and setting: in the case of `c1ccc(CNCC2c3ccccc3Cc3ccccc32)cc1` it was 6.14.
On to `CN1CCC(=C2c3ccccc3C=Cc3ccccc32)CC1` [CYPROHEPTADINE], for which the pKi in test [2] was 5.39; in test [3] it was 6.95; in test [4] it was 7.96; in test [5], 6.54.
As to `CN(C)CCCN1c2ccccc2CCc2ccccc21` [IMIPRAMINE], in test [3], the pKi was 6.14.
As to `NCCCC1c2ccccc2Cc2ccccc21`, in test [1], the pKi is 7.49.
In test [1], `NCCCN1c2ccccc2CCc2ccccc21` had a pKi of 6.40.
Same read-out and setting: the value for `NCCC1c2ccccc2Cc2ccccc21` was 6.32.
In the case of `NCC1c2ccccc2Cc2ccccc21`, the pKi in test [2] is < 5.00; in test [6], 7.37; in test [3] it was < 5.00; in test [5] it was < 5.00.

The values above are taken from ChEMBL document CHEMBL1134215, “Influence of chain length and N-alkylation on the selective serotonin receptor ligand 9-(aminomethyl)-9,10-dihydroanthracene” (Bioorg Med Chem Lett, 2001).
